# Earlier results as cited in US20150346185A1, “DIAGNOSIS OF CYSTIC FIBROSIS” (priority 2012, published 2015).
# Target: T1, Na+ channel ENaC (Homo sapiens, UniProt P37088+P51168+P51170)
# T1 construct: from tissue; host or cells: human nasal epithelium (healthy individuals and cystic fibrosis patients)
# Conditions: healthy patients, infusion of amiloride
# T1 sequence (P51168 whole entry): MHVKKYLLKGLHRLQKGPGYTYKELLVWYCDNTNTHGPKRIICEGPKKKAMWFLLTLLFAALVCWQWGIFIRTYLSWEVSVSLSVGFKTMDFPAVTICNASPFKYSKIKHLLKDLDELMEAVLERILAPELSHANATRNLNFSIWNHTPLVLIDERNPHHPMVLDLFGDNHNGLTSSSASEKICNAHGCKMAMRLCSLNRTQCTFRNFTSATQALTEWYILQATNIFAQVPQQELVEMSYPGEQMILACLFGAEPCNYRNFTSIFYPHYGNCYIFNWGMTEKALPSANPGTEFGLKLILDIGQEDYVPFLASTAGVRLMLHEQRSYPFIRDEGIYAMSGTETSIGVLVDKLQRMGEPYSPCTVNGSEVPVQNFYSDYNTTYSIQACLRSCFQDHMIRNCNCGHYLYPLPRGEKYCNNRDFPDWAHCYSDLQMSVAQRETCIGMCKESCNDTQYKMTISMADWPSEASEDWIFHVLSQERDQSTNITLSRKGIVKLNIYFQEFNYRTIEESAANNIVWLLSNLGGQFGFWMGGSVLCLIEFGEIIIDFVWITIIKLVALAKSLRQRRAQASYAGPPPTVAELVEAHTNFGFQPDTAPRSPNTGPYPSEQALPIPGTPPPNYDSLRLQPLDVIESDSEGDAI
# T1 sequence (P37088 whole entry): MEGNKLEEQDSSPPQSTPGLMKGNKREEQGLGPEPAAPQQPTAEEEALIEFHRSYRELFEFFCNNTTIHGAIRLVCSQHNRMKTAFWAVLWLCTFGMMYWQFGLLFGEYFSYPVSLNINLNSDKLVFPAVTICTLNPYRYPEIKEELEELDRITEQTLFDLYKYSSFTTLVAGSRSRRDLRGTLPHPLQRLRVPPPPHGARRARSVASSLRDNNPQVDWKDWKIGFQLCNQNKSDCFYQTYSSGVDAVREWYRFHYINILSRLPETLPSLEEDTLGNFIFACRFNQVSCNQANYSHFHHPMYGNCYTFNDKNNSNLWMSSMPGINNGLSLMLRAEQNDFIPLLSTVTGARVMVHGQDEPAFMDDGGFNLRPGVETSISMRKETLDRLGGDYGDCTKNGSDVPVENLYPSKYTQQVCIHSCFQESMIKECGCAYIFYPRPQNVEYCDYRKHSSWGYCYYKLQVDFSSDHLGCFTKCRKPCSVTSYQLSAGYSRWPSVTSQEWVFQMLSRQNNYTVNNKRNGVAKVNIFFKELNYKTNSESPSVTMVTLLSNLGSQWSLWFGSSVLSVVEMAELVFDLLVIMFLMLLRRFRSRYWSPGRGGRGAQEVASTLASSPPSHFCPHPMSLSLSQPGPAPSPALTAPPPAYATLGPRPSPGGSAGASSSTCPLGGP
# T1 sequence (P51170 whole entry): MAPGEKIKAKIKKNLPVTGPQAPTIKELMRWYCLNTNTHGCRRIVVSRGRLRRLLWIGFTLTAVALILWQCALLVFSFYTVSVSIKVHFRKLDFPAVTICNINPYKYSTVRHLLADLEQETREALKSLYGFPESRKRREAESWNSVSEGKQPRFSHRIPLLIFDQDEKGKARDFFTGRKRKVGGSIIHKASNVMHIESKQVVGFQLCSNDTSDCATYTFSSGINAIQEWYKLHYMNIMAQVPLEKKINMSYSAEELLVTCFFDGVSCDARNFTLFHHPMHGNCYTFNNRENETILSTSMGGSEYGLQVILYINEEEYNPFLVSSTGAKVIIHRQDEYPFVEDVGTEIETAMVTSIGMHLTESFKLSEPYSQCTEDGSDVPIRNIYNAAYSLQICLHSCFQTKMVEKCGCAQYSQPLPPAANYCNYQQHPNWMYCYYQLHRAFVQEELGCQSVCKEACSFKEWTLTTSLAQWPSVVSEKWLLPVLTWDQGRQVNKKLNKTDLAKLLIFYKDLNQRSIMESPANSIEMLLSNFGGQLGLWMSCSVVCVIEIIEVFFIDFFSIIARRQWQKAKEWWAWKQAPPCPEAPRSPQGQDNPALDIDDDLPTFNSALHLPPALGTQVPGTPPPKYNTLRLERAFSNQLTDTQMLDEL
smiles,measurement,value
N=C(N)NC(=O)c1nc(Cl)c(N)nc1N [amiloride],reduction of nasal transepithelial potential difference,55%
